Patent publication US10278971B2, “Fluorocyclopentenylcytosine methods of use” (Rexahn Pharmaceuticals, Inc., priority 2015, dated 2019)

Key:
PCFT = PCFT mediated transport of radiolabeled MTX; format: cell-based, human; settings: CEM cells, 24 hr; RX-3117 29.6 μM; DAC positive control
Text: In this study, the following cell lines were used: (1) CCRF-CEM cells and its MTX resistant variant CEM-MTX, characterized by a deficiency of the reduced folate carrier (RFC) (Jansen G., et al., JBC 273 (1998) 30189-30198). The PCFT gene in CEM cells is highly methylated. (Gonen N., et al., BBRC 376 (2008) 787-92.); (2) CEM cells cultured in RPMI medium with 10% fetal bovine serum (FBS); and (3) A549 and SW1573 non-small cell lung cancer (NSCLC) and A2780 ovarian cancer cell lines cultured in DMEM medium with 10% FBS.
MTX transport was measured using radiolabeled MTX in CEM wild type and CEM-MTX cell lines. CEM cells have a high RFC activity. CEM-MTX are completely deficient in RFC-mediated transport. CEM cells have a highly methylated PCFT transporter and a very low PCFT mediated transport (Gonen N., et al., BBRC 376 (2008) 787-92). MTX transport at pH 7.4 is predominantly RFC mediated and less than 2% by PCFT. Folic acid was used to inhibit PCFT mediated transport. […] CEM and CEM-MTX cells were exposed to 29.6 μM RX-3117 and to 0, 19 μM aza-CdR as a positive control. MTX transport was measured after 24 hr to the drugs in a 3 minutes uptake assay using 2 μM [3′,5,′7-3H]-MTX.

SW1573 cells = experiment: Protein expression by western blot; format: cell-based, human
Description: (§1) The mechanism of cell cycle arrest was investigated by measuring cell cycle proteins expression using western blotting. The influence of RX-3117 on protein expression during different treatment conditions was analyzed by western blot. Cells were lysed using cell lysis buffer 1× (Cell Signaling, Danvers, Mass., USA) containing 4% protease inhibitor cocktail (Roche Diagnostics, Mannheim, Germany) on ice for 30 minutes and centrifuged for 10 minutes at 4° C. at 14,000 rpm. The protein containing supernatant was collected and the Bio-Rad assay was performed to determine protein amount as described in Lemos et al., Pharmacogenomics, 12(2):159-70 (2011). The following antibodies were used for protein expression: DNMT1 (Cell Signaling, 1:1000 #5032S), DNMT3A (Cell Signaling 1:1000 #2160S), DNMT3B (Abcam, 1; 1000), Chk2 (Cell Signaling 1:1000 #6334P), Chk1 (Cell Signaling 1:1000), p-CDC25C (Cell Signaling 1:1000 #4901S), Cdk1 (Cell Signaling 1:1000 #9112S), Cdk2 (Cell Signaling 1:1000 #2546S), wee1 (Cell Signaling 1:1000), 5139-γH2A.X (Cell Signaling, 1:1000), β actin (Sigma, 1:10,000), Caspase 9 (Cell Signaling, 1:1000), PARP (Roche 2003, 1:1000), p53 (Cell Signaling, 1:1000, #9282). The antibodies were diluted in 1:1 solution Rockland buffer (Rockland Inc., Philadelphia, Pa., USA) and PBS supplemented with 0.05% Tween® 20. The proteins were separated in 20% SDS-PAGE and transferred to a PVDF membrane. For fluorescent signal secondary antibodies goat anti-mouse InfraRedDye and goat anti-rabbit InfraRedDye were used. The proteins were detected by an Odyssey InfraRed Imager (Li-COR Bioscience, Lincoln, Nebr., USA).
The influence of RX-3117 on protein expression during different treatment conditions was analyzed by western blot. Cells were lysed using 1× cell lysis buffer (Cell Signaling, Danvers, Mass., USA) containing 4% protease inhibitor cocktail (Roche Diagnostics, Mannheim, Germany) on ice for 30 minutes and centrifuged for 10 minutes at 4° C. at 14,000 rpm. Bio-Rad assay was performed to determine protein amount in the collected supernatant as described earlier (Lemos C, Kathmann I, Giovannetti E, Calhau C, Jansen G and Peters G J: Impact of cellular folate status and epidermal growth factor receptor expression on BCRP/ABCG2-mediated resistance to gefitinib and erlotinib. Br J Cancer 100: 1120-7, 2009). The following antibodies were used for protein expression: γH2A.X (cat#9718, Cell Signaling, 1:1000), β-actin (Sigma, 1:10,000), Cdc25C Ser216 (cat#4901, Cell Signaling, 1:1000), Cdk1 Tyr15 (cat#9111, Cell Signaling, 1:1000), […] (cat#2197S, Cell Signaling, 1:1000), Histone 3 (cat#4499, Cell Signaling). Antibodies were diluted in 1:1 solution with Rockland buffer (Rockland Inc, Philadelphia, Pa.) and phosphate buffered saline (PBS) supplemented with 0.05 Tween 20. Proteins were separated in 20% SDS-PAGE gel and transferred to polyvinylidene difluoride (PVDF) membrane. For fluorescent signal secondary anti-bodies goat anti-mouse InfraRedDye and goat anti-rabbit InfraRedDye were used. Proteins were detected by an Odyssey InfraRed Imager (Li-COR Bioscience, Lincoln, Nebr.).

[1] = system: overall methylation of DNA; experiment: Overall methylation of DNA with antibody against 5-methyl-cytosine; format: cell-based, human; settings: A549, 5 μM, 48 hr exposure
Description: (§2) DNMT1 protein expression was measured by Western Blotting after exposure to RX-3117 for 24 or 48 hr. DNMT1 RNA expression was measured by real-time PCR after 24 and 48 hr exposure to RX-3117. DNMT enzyme activity was measured in isolated nuclei after exposure 1 μM RX-3117 or 5 μM aza-CdR using a DNA methyltransferase assay kit provided by EpiGentek using the ability of a CpG dinding domain to bind to methylated DNA. In A549 cells the effect of 5 μM RX-3117 on overall methylation was measured with a specific antibody against 5-methyl-cytosine. Bands on Western blots were visualized using appropriate InfraRedDye using an Odyssey InfraRed imager.

SW1573/G = settings: as reported in Peters et al. 2013; cited from earlier work
DNMT1 = DNMT1 protein expression by Western Blotting; format: cell-based, human; settings: for downregulation of DNMT1 protein expression: A549 and SW1573, 5-50 μM
Description: as §1, §2

DNMT1 mRNA = experiment: DNMT1 RNA expression by real-time PCR; format: cell-based, human
Description: as §2

[2] = SW1573, 10 μM, 48 hour exposure
[3] = SW1573, 24 hour exposure to increasing concentrations

Nc1ccn([C@@H]2C(F)=C(CO)[C@@H](O)[C@H]2O)c(=O)n1 [RX-3117, 4-amino-1-((1S,4R,5S)-2-fluoro-4,5-dihydroxy-3-hydroxymethyl-cyclopent-2-enyl)-1H-pyrimidin-2-one]
increase of PCFT mediated transport of MTX (PCFT): 4 fold | γH2A.X protein expression, combination with irradiation (SW1573 cells; SW1573, 0.3 μM plus irradiation): more pronounced | double strand break damage marker γH2A.X (SW1573 cells; SW1573, 0.3 μM, 48 h exposure): increased | expression of p16INK4A and MGMT (SW1573 cells; SW1573, 5 μM, 24 hr exposure): increased | Chk1 and Cdk2 expression levels (SW1573 cells; [2]): increased | p-Cdc25C expression levels (SW1573 cells; [2]): decreasing | cleaved PARP (SW1573 cells; [3]): induced cleaved PARP | pro-caspase 9 (SW1573 cells; [3]): decreased | wee1 expression levels (SW1573 cells; [3]): decreased | double-strand breaks (DSB), biomarker γH2A.X (SW1573 cells; SW1573, 48 hour exposure): induced double-strand breaks | decrease of overall methylation of DNA [1]: 25% | IC50 (SW1573/G): 7.3 µM | DNMT1 protein expression (DNMT1; A549, at higher dose (1-75 μM tested)): down regulates | downregulation of DNMT1 protein expression (DNMT1; 24 hour exposure): 5-20% | downregulation of DNMT1 protein expression (DNMT1; 48 hr): > 90% | DNMT1 protein expression (DNMT1; A2780, 1 μM, 24 hr): protein down regulation was already observed | DNMT1 mRNA (DNMT1 mRNA; A549 and SW1573, 24 hours exposure): not affected | DNMT1 mRNA (DNMT1 mRNA; A549 and SW1573, 48 hr): affected moderately
